According to US20090291977A1, “Chromane Derivatives Useful As Acid Pump Antagonists” (priority 2004, published 2009):

Each compound was assayed against T1, Porcine gastric H+/K+-ATPase (Sus scrofa, UniProt P19156) (assay: Ion-leaky porcine gastric H+/K+-ATPase inhibition). Details: ion-leaky vesicles, 5 mM KCl, pH 6.4, 37° C., 30 minutes.
T1 construct: The gastric vesicles were collected from interface on 0.25 M sucrose layer containing 7% Ficoll; from tissue; host or cells: mucous membrane of fresh porcine stomachs (gastric vesicles)
T1 sequence (P19156 2-1034 limits assumed): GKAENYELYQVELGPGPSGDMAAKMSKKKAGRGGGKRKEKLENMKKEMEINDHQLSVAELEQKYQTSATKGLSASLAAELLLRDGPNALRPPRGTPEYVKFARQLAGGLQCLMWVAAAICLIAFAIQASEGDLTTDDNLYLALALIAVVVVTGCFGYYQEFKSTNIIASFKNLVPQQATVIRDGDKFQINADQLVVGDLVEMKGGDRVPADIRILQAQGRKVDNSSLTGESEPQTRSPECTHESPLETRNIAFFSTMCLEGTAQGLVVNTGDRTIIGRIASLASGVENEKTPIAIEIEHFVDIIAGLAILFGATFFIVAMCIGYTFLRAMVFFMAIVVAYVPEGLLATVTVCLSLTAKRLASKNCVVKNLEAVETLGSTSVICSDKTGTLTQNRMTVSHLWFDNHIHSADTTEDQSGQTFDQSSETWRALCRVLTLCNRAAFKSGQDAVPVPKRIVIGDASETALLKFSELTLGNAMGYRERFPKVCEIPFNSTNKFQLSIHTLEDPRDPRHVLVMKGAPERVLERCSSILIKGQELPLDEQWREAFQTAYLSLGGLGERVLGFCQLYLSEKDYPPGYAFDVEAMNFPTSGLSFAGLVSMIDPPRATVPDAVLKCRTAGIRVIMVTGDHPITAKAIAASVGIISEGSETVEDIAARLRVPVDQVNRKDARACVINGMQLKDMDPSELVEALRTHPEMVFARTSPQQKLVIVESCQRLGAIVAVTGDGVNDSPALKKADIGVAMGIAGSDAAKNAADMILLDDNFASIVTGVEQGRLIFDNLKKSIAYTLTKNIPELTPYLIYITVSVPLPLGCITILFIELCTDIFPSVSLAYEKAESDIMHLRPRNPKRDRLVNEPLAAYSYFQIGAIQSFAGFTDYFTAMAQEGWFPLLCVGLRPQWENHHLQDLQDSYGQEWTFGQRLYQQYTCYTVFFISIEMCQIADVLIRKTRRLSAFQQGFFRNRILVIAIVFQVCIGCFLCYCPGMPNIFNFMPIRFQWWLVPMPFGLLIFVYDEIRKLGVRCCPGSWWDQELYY
T1 sequence (P18434 whole entry partner): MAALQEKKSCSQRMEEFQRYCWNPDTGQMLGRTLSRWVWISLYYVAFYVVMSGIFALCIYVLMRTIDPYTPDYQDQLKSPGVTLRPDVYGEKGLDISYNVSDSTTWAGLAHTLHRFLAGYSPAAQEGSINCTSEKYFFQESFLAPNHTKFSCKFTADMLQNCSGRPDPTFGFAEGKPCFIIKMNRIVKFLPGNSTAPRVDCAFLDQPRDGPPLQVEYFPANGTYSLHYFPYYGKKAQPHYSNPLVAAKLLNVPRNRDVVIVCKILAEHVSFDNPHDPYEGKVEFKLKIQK
Format: biochemical
Protocol: The porcine gastric vesicles for Porcine gastric H^+/K^+-ATPase inhibition assays were prepared from mucous membrane in fresh porcine stomachs by homogenization with a tight-fitted polytetrafluoroethylene (Teflone®) homogenizer in 0.25 M sucrose at 4° C. The crude pellet was removed with centrifugation at 20,000 g for 30 min. Then supernatant was centrifuged at 100,000 g for 30 min. The resulting pellet was re-suspended in 0.25 M sucrose, and then subjected to density gradient centrifugation at 132,000 g for 90 min. The gastric vesicles were collected from interface on 0.25 M sucrose layer containing 7% Ficoll™ PM400(Amersham Biosciences). This procedure was performed in a cold room.
Ion-leaky porcine gastric H^+/K^+-ATPase-inhibition was measured according to the modified method described in Biochemical Pharmacology, 1988, 37, 2231-2236.
The isolated vesicles were lyophilized, and then kept in deep-freezer until use. For enzyme assay, lyophilized vesicles were reconstituted with 3 mM MgSO4 containing 40 mM Bis-tris (pH 6.4 at 37° C.).
Enzyme reaction was performed incubating 5 mM KCl, 3 mM Na2ATP, 3 mM MgSO4 and 1.0 μg of reconstituted vesicles for 30 minutes at 37° C. in a final 60 μl of reaction mixture (40 mM Bis-tris, pH 6.4) with or without the test compound. Enzyme reaction was stopped by adding 10% sodium dodecyl sulphate (SDS). Released inorganic phosphate from ATP was detected by incubation with mixture of 1 part of 35 mM ammonium molybdate tetrahydrate in 15 mM Zinc acetate hydrate and 4 parts of 10% ascorbic acid (pH 5.0), resulting in phosphomolybdate, which has optical density at 750 nm.

| Compound | IC50 |
| --- | --- |
| Cc1cccc2c1C(Nc1cc(C(=O)N(C)CCO)cn3c(C)c(C)nc13)CCO2 (racemic) [Example 5-1, N-(2-Hydroxyethyl)-N,2,3-trimethyl-8-[(5-methyl-3,4-dihydro-2H-chromen-4-yl)amino]imidazo[1,2-a]pyridine-6-carboxamide] | 0.0947 µM |
| Cc1nc2c(NC3CCOc4cc(F)ccc43)cc(C(=O)N(C)C)cn2c1C (single isomer, unassigned) [Example 6-3, 8-[(7-Fluoro-3,4,dihydro-2H-chromen-4-yl)amino]-N,N,2,3-tetramethylimidazo[1,2-a]pyridine-6-carboxamide] | 0.0157 µM |
| Cc1nc2c(NC3CCOc4cc(F)cc(F)c43)cc(C(=O)N(C)C)cn2c1C (single isomer, unassigned) [Example 8-2, 8-[(5,7-Difluoro-3,4-dihydro-2H-chromen-4-yl)amino]-N,N,2,3-tetramethylimidazo[1,2-a]pyridine-6-carboxamide] | 0.023 µM |
| Cc1nc2c(NC3CCOc4cc(F)ccc43)cc(C(=O)N(C)CCO)cn2c1C (racemic) [Example 7-1, 8-[(7-Fluoro-3,4-dihydro-2H-chromen-4-yl)amino]-N-(2-hydroxyethyl)-N,2,3-trimethylimidazol[1,2-a]pyridlne-6-carboxamide] | 0.0266 µM |
| Cc1nc2c(NC3CCOc4ccccc43)cc(C(=O)N(C)CCO)cn2c1C (racemic) [Example 2-1, 8-(3,4-Dihydro-2H-chromen-4-ylamino)-N-(2-hydroxyethyl)-N,2,3-trimethylimidazo[1,2-a]pyridine-6-carboxamide] | 0.0497 µM |
| Cc1nc2c(NC3CCOc4cc(F)ccc43)cc(C(=O)N(C)CCO)cn2c1C (single isomer, unassigned) [Example 7-2, 8-[(7-Fluoro-3,4-dihydro-2H-chromen-4-yl)amino]-N-(2-hydroxyethyl)-N,2,3-trimethylimidazol[1,2-a]pyridlne-6-carboxamide] | 0.0205 µM |
| Cc1nc2c(NC3CCOc4cc(F)cc(F)c43)cc(C(=O)N(C)CCO)cn2c1C (racemic) [Example 9-1, 8-[(5,7-Difluoro-3,4-dihydro-2H-chromen-4-yl)amino]-N-(2-hydroxyethyl)-N,2,3-trimethylimidazo[1,2-a]pyridine-6-carboxamide] | 0.05 µM |
| Cc1nc2c(NC3CCOc4cc(F)cc(F)c43)cc(C(=O)N(C)C)cn2c1C (single isomer, unassigned) [Example 8-3, 8-[(5,7-Difluoro-3,4-dihydro-2H-chromen-4-yl)amino]-N,N,2,3-tetramethylimidazo[1,2-a]pyridine-6-carboxamide] | 0.049 µM |
| Cc1nc2c(NC3CCOc4cc(F)cc(F)c43)cc(C(=O)N(C)CCO)cn2c1C (single isomer, unassigned) [Example 9-2, 8-[(5,7-Difluoro-3,4-dihydro-2H-chromen-4-yl)amino]-N-(2-hydroxyethyl)-N,2,3-trimethylimidazo[1,2-a]pyridine-6-carboxamide] | 0.0159 µM |
| Cc1nc2c(NC3CCOc4cccc(F)c43)cc(C(=O)N(C)C)cn2c1C (single isomer, unassigned) [Example 10-2, 8-[(5-Fluoro-3,4-dihydro-2H-chromen-4-yl)amino]-N,N,2,3-tetramethylimidazo[1,2-a]pyridine-6-carboxamide] | 0.0511 µM |
| Cc1nc2c(NC3CCOc4cccc(F)c43)cc(C(=O)N(C)CCO)cn2c1C (racemic) [Example 11-1, 8-[(5-Fluoro-3,4-dihydro-2H-chromen-4-yl)amino]-N-(2-hydroxyethyl)-N,2,3-trimethylimidazo[1,2-a]pyridine-6-carboxamide] | 0.0486 µM |
| Cc1cccc2c1C(Nc1cc(C(=O)N(C)CCO)cn3c(C)c(C)nc13)CCO2 (single isomer, unassigned; (-)) [Example 5-2, (−)-N-(2-Hydroxyethyl)-N,2,3-trimethyl-8-[(5-methyl-3,4-dihydro-2H-chromen-4-yl)amino]imidazo[1,2-a]pyridine-6-carboxamide] | 0.0862 µM |
| Cc1nc2c(NC3COCc4ccccc43)cc(C(=O)N(C)CCO)cn2c1C (single isomer, unassigned; (+)) [Example 4-3, (+)-8-(3,4-Dihydro-1H-isochromen-4-ylamino)-N-(2-hydroxyethyl)-N,2,3-trimethylimidazo[1,2-a]pyridine-6-carboxamide] | 0.112 µM |
| 8-3,4-Dihydro-1H-isochromen-4-ylamino)-N,N,2,3-tetramethylimidazo[1,2-a]pyridine-6-carboxamide [Example 3-1] | 0.103 µM |
| Cc1nc2c(NC3CCOc4cc(F)ccc43)cc(C(=O)N(C)C)cn2c1C (single isomer, unassigned) [Example 6-2, 8-[(7-Fluoro-3,4,dihydro-2H-chromen-4-yl)amino]-N,N,2,3-tetramethylimidazo[1,2-a]pyridine-6-carboxamide] | 0.0409 µM |

The next lines start with the values.

| IC50 | Compound |
| --- | --- |
| 0.12 µM | Cc1nc2c(NC3CCOc4c(F)cccc43)cc(C(=O)N(C)C)cn2c1C (single isomer, unassigned) [Example 14-2, 8-[(8-Fluoro-3,4-dihydro-2H-chromen-4-yl)amino]-N,N,2,3-tetramethylimidazo[1,2-a]pyridine-6-carboxamide] |
| 0.294 µM | Cc1nc2c(NC3CCOc4c(F)cccc43)cc(C(=O)N(C)C)cn2c1C (racemic) [Example 14-1, 8-[(8-Fluoro-3,4-dihydro-2H-chromen-4-yl)amino]-N,N,2,3-tetramethylimidazo[1,2-a]pyridine-6-carboxamide] |
| 0.6 µM | Cc1nc2c(NC3CCOc4cccc(Cl)c43)cc(C(=O)N(C)CCO)cn2c1C (single isomer, unassigned) [Example 19-2, 8-[(5-Chloro-3,4-dihydro-2H-chromen-4-yl)amino]-N-(2-hydroxyethyl)-N,2,3-trimethylimidazo[1,2-a]pyridine-6-carboxamide] |
| 0.101 µM | Cc1nc2c(NC3CCOc4cccc(F)c43)cc(C(=O)N(C)CCO)cn2c1C (single isomer, unassigned) [Example 11-3, 8-[(5-Fluoro-3,4-dihydro-2H-chromen-4-yl)amino]-N-(2-hydroxyethyl)-N,2,3-trimethylimidazo[1,2-a]pyridine-6-carboxamide] |
| 0.39 µM | Cc1nc2c(NC3CCOc4cccc(Cl)c43)cc(C(=O)N(C)CCO)cn2c1C (racemic) [Example 19-1, 8-[(5-Chloro-3,4-dihydro-2H-chromen-4-yl)amino]-N-(2-hydroxyethyl)-N,2,3-trimethylimidazo[1,2-a]pyridine-6-carboxamide] |
| 0.0208 µM | Cc1nc2c(NC3CCOc4ccc(F)cc43)cc(C(=O)N(C)C)cn2c1C (racemic) [Example 12-1, 8-[(6-Fluoro-3,4-dihydro-2H-chromen-4-yl)amino]-N,N,2,3-tetramethylimidazo[1,2-a]pyridine-6-carboxamide] |
| 0.0538 µM | Cc1nc2c(NC3CCOc4cccc(F)c43)cc(C(=O)N(C)CCO)cn2c1C (single isomer, unassigned) [Example 11-2, 8-[(5-Fluoro-3,4-dihydro-2H-chromen-4-yl)amino]-N-(2-hydroxyethyl)-N,2,3-trimethylimidazo[1,2-a]pyridine-6-carboxamide] |
| 0.5 µM | Cc1nc2c(NC3CCOc4cccc(Cl)c43)cc(C(=O)N(C)CCO)cn2c1C (single isomer, unassigned) [Example 19-3, 8-[(5-Chloro-3,4-dihydro-2H-chromen-4-yl)amino]-N-(2-hydroxyethyl)-N,2,3-trimethylimidazo[1,2-a]pyridine-6-carboxamide] |
| 0.3 µM | Cc1nc2c(NC3CCOc4cccc(Cl)c43)cc(C(=O)N(C)C)cn2c1C (single isomer, unassigned) [Example 18-2, 8-[(5-Chloro-3,4-dihydro-2H-chromen-4-yl)amino]-N,N,2,3-tetramethylimidazo[1,2-a]pyridine-6-carboxamide] |
| 0.091 µM | Cc1cccc2c1C(Nc1cc(C(=O)N(C)C)cn3c(C)c(C)nc13)CCO2 (single isomer, unassigned) [Example 17-3, N,N,2,3-Tetramethyl-8-[(5-methyl-3,4-dihydro-2H-chromen-4-yl)amino]imidazo[1,2-a]pyridine-6-carboxamide] |
| 0.197 µM | Cc1nc2c(NC3CCOc4ccc(F)cc43)cc(C(=O)N(C)C)cn2c1C (single isomer, unassigned) [Example 12-2, 8-[(6-Fluoro-3,4-dihydro-2H-chromen-4-yl)amino]-N,N,2,3-tetramethylimidazo[1,2-a]pyridine-6-carboxamide] |
| 0.0409 µM | Cc1nc2c(NC3CCOc4c(F)cccc43)cc(C(=O)N(C)CCO)cn2c1C (racemic) [Example 15-1, 8-[(8-Fluoro-3,4-dihydro-2H-chromen-4-yl)amino]-N-(2-hydroxyethyl)-N,2,3-trimethylimidazol[1,2-a]pyridine-6-carboxamide] |
| 0.17 µM | Cc1nc2c(NC3CCOc4ccc(F)cc43)cc(C(=O)N(C)CCO)cn2c1C (single isomer, unassigned) [Example 13-3, 8-[(6-Fluoro-3,4-dihydro-2H-chromen-4-yl)amino]-N-(2-hydroxyethyl)-N,2,3-trimethylimidazol[1,2-a]pyridine-6-carboxamide] |
